pIC50: −log10 of the molar value. Counter-ions that a name gives are not always drawn.
Biological target: EZH2 within the PRC2 complex (Homo sapiens (Human), UniProt Q15910)
Experiment: EZH2 methyltransferase SPA, biotinylated histone H3K27 peptide substrate (Assay Protocol 2)
Assay type: biochemical
Conditions: 3H-SAM, ≦10 nM approaches limit of detection
Procedure: Compounds contained herein were evaluated for their ability to inhibit the methyltransferase activity of EZH2 within the PRC2 complex. Human PRC2 complex was prepared by co-expressing each of the 5 member proteins (FLAG-EZH2, EED, SUZ12, RbAp48, AEBP2) in Sf9 cells followed by co-purification. Enzyme activity was measured in a scintillation proximity assay (SPA) where a tritiated methyl group is transferred from 3H-SAM to a lysine residue on a biotinylated, unmethylated peptide substrate derived from histone H3. The peptides were captured on streptavidin-coated SPA beads and the resulting signal was read on a ViewLux plate reader.
Part A. Compound Preparation
• 4. Prepare 10 mM stock of compounds from solid in 100% DMSO. • 5. Set up an 11-point serial dilution (1:4 dilution, top concentration 10 mM) in 100% DMSO for each test compound in a 384 well plate leaving columns 6 and 18 for DMSO controls. • 6. Dispense 10 nL of compound from the dilution plate into reaction plates (Corning, 384-well polystyrene NBS, Cat#3673). Part B. Reagent Preparation Prepare the following solutions: • 7. 1× Base Buffer, 50 mM Tris-HCl, pH 8, 2 mM MgCl2: Per 1 L of base buffer, combine 1 M Tris-HCl, pH 8 (50 mL), 1 M MgCl2 (2 mL), and distilled water (948 mL). • 8. 1× Assay Buffer: Per 10 mL of 1× Assay Buffer, combine 1× Base Buffer (9.96 mL), 1 M DTT (40 uL), and 10% Tween-20 (1 uL) to provide a final concentration of 50 mM Tris-HCl, pH 8, 2 mM MgCl2, 4 mM DTT, 0.001% Tween-20. • 9. 2× Enzyme Solution: Per 10 mL of 2× Enzyme Solution, combine 1× Assay Buffer (9.99 mL) and 3.24 uM EZH2 5 member complex (6.17 uL) to provide a final enzyme concentration of 1 nM. • 10. SPA Bead Solution: Per 1 mL of SPA Bead Solution, combine Streptavidin coated SPA beads (PerkinElmer, Cat#RPNQ0261, 40 mg) and 1× Assay Buffer (1 mL) to provide a working concentration of 40 mg/mL. • 11. 2× Substrate Solution: Per 10 mL of 2× Substrate Solution, combine 40 mg/mL SPA Bead Solution (375 uL), 1 mM biotinylated histone H3K27 peptide (200 uL), 12.5 uM 3H-SAM (240 uL; 1 mCi/mL), 1 mM cold SAM (57 uL), and 1× Assay Buffer (9.13 mL) to provide a final concentration of 0.75 mg/mL SPA Bead Solution, 10 uM biotinylated histone H3K27 peptide, 0.15 uM 3H-SAM (˜12 uCi/mL 3H-SAM), and 2.85 uM cold SAM. • 12. 2.67× Quench Solution: Per 10 mL of 2.67× Quench Solution, combine 1× Assay Buffer (9.73 mL) and 10 mM cold SAM (267 uL) to provide a final concentration of 100 uM cold SAM. Part C. Assay Reaction in 384-well Grenier Bio-One Plates Compound Addition • 3. Stamp 10 nL/well of 1000× Compound to test wells (as noted above). • 4. Stamp 10 nL/well of 100% DMSO to columns 6 & 18 (high and low controls, respectively). Assay • 10. Dispense 5 uL/well of 1× Assay Buffer to column 18 (low control reactions). • 11. Dispense 5 uL/well of 2× Substrate Solution to columns 1-24 (note: substrate solution should be mixed to ensure homogeneous bead suspension before dispensing into matrix reservoir). • 12. Dispense 5 uL/well of 2× Enzyme Solution to columns 1-17, 19-24. • 13. Incubate the reaction for 60 min at room temperature. Quench • 5. Dispense 6 uL/well of the 2.67× Quench Solution to columns 1-24. • 6. Seal assay plates and spin for ˜1 min at 500 rpm. • 7. Dark adapt plates in the ViewLux instrument for 15-60 min. Read plates • 2. Read the assay plates on the Viewlux Plate Reader utilizing the 613 nm emission filter or clear filter (300 s exposure). Reagent addition can be done manually or with automated liquid handler. Results
Percent inhibition was calculated relative to the DMSO control for each compound concentration and the resulting values were fit using standard IC50 fitting parameters within the ABASE data fitting software package.

Chain of EZH2 within the PRC2 complex (Q15910 whole entry): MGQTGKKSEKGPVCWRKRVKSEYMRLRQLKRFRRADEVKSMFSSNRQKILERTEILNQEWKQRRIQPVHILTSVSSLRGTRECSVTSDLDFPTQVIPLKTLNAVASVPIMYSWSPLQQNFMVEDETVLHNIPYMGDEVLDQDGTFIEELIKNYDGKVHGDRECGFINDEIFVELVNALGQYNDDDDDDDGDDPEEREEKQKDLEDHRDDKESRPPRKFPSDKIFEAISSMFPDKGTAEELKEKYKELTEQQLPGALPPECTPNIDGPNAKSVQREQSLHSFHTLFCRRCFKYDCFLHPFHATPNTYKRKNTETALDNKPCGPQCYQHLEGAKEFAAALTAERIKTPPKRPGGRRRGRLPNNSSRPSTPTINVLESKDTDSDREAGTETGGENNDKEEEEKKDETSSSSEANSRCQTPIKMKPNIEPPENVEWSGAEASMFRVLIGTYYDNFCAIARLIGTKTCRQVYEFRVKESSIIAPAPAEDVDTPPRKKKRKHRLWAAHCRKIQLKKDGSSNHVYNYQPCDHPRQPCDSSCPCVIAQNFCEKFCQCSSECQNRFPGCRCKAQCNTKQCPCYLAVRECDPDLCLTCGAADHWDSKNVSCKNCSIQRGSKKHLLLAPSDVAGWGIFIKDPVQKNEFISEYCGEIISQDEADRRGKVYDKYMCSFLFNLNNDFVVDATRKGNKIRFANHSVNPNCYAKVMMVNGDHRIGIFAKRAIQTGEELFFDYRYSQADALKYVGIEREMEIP
Chain of EZH2 within the PRC2 complex (O75530 whole entry partner): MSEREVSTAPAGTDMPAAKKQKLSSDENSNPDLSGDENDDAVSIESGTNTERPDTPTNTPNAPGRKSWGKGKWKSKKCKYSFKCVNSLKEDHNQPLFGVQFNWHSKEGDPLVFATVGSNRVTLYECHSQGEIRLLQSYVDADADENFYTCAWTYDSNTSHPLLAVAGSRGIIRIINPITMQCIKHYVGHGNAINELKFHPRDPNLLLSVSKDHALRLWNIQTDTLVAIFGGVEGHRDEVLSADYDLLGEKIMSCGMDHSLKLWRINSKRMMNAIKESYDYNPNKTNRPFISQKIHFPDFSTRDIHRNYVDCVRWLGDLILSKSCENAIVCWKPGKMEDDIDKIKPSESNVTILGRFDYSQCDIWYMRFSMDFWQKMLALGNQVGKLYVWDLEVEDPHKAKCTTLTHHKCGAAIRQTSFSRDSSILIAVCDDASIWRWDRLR
Chain of EZH2 within the PRC2 complex (Q15022 whole entry partner): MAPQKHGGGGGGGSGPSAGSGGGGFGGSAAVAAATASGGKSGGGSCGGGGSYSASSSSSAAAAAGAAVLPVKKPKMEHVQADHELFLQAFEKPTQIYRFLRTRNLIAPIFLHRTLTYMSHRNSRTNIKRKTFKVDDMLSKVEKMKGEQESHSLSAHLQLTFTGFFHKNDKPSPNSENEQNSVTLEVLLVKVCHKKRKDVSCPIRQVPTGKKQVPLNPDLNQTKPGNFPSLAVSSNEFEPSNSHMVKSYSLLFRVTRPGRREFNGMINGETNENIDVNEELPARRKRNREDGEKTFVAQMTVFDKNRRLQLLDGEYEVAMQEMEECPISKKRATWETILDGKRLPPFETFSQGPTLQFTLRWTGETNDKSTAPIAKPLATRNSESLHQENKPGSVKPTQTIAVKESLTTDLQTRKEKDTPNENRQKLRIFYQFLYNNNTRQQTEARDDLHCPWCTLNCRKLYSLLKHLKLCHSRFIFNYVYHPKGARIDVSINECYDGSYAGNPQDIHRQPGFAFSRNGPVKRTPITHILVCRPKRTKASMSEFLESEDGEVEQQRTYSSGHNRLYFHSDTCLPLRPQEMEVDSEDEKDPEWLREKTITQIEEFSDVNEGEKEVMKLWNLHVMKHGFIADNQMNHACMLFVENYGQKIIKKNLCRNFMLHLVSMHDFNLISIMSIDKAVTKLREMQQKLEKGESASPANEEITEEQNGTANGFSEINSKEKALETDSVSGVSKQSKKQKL
Chain of EZH2 within the PRC2 complex (Q09028 whole entry partner): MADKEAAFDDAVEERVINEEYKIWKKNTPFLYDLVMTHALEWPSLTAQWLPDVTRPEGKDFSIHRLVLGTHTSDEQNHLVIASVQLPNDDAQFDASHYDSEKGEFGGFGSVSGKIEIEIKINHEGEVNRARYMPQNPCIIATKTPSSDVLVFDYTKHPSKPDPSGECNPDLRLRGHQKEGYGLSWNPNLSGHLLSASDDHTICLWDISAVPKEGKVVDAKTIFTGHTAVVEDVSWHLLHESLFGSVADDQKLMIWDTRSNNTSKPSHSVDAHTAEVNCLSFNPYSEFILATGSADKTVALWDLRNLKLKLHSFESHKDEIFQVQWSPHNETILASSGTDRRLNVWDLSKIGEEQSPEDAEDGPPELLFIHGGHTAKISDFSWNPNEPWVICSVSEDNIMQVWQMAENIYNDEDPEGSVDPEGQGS
Chain of EZH2 within the PRC2 complex (Q6ZN18 whole entry partner): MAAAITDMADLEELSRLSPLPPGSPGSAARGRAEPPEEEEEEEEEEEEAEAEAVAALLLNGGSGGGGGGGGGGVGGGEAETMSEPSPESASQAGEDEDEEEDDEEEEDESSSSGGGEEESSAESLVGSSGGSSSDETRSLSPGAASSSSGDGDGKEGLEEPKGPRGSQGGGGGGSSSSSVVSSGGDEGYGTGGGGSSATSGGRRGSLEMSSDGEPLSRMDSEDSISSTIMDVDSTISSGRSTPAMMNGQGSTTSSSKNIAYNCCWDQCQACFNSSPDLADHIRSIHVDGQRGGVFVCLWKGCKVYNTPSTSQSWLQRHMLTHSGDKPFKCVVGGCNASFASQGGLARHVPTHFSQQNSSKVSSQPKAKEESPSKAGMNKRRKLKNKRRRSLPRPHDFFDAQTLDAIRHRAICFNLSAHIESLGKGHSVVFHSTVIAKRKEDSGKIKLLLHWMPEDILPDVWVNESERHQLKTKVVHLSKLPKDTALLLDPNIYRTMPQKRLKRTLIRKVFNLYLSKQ

| SMILES | pIC50 |
| --- | --- |
| CCN(c1sc(C)c(C(=O)NCc2c(C)cc(C)[nH]c2=O)c1C)C1CCOCC1 [Example 54, N-((4,6-Dimethyl-2-oxo-1,2-dihydropyridin-3-yl)methyl)-5-(ethyl(tetrahydro-2H-pyran-4-yl)amino)-2,4-dimethylthiophene-3-carboxamide hydrochloride] | 7.49 |
| CCN(c1sc(C#N)c(C(=O)NCc2c(C)cc(C)[nH]c2=O)c1C)C1CCOCC1 [Example 55, 2-Cyano-N-((4,6-dimethyl-2-oxo-1,2-dihydropyridin-3-yl)methyl)-5-(ethyl(tetrahydro-2H-pyran-4-yl)amino)-4-methylthiophene-3-carboxamide hydrochloride] | 7.10 |
| CCN(c1sc(N2CCN(C)CC2)c(C(=O)NCc2c(C)cc(C)[nH]c2=O)c1C)C1CCOCC1 [Example 56, N-((4,6-Dimethyl-2-oxo-1,2-dihydropyridin-3-yl)methyl)-5-(ethyl(tetrahydro-2H-pyran-4-yl)amino)-4-methyl-2-(4-methylpiperazin-1-yl)thiophene-3-carboxamide hydrochloride] | 6.30 |
| CCN(c1sc(C2CCN(C(=O)OC(C)(C)C)C2)c(C(=O)NCc2c(C)cc(C)[nH]c2=O)c1C)C1CCOCC1 (centres unmarked) [Example 57, tert-Butyl 3-(3-(((4,6-dimethyl-2-oxo-1,2-dihydropyridin-3-yl)methyl)carbamoyl)-5-(ethyl(tetrahydro-2H-pyran-4-yl)amino)-4-methylthiophen-2-yl)pyrrolidine-1-carboxylate] | 6.70 |
| CCN(c1sc(C2CCNC2)c(C(=O)NCc2c(C)cc(C)[nH]c2=O)c1C)C1CCOCC1 (centres unmarked) [Example 58, N-((4,6-Dimethyl-2-oxo-1,2-dihydropyridin-3-yl)methyl)-5-(ethyl(tetrahydro-2H-pyran-4-yl)amino)-4-methyl-2-(pyrrolidin-3-yl)thiophene-3-carboxamide hydrochloride] | 6.10 |
| CCN(c1sc(C2CCN(C(=O)OC(C)(C)C)CC2)c(C(=O)NCc2c(C)cc(C)[nH]c2=O)c1C)C1CCOCC1 [Example 59, tert-Butyl 4-(3-(((4,6-dimethyl-2-oxo-1,2-dihydropyridin-3-yl)methyl)carbamoyl)-5-(ethyl(tetrahydro-2H-pyran-4-yl)amino)-4-methylthiophen-2-yl)piperidine-1-carboxylate] | 6.50 |
| CCN(c1sc(C2CCNCC2)c(C(=O)NCc2c(C)cc(C)[nH]c2=O)c1C)C1CCOCC1 [Example 60, N-((4,6-Dimethyl-2-oxo-1,2-dihydropyridin-3-yl)methyl)-5-(ethyl(tetrahydro-2H-pyran-4-yl)amino)-4-methyl-2-(piperidin-4-yl)thiophene-3-carboxamide hydrochloride] | 6.20 |
| CCN(c1sc(C2=CCN(C)CC2)c(C(=O)NCc2c(C)cc(C)[nH]c2=O)c1C)C1CCOCC1 [Example 61, N-((4,6-Dimethyl-2-oxo-1,2-dihydropyridin-3-yl)methyl)-5-(ethyl(tetrahydro-2H-pyran-4-yl)amino)-4-methyl-2-(1-methyl-1,2,3,6-tetrahydropyridin-4-yl)thiophene-3-carboxamide] | 6.30 |
| CCN(c1sc(C2CCN(S(C)(=O)=O)C2)c(C(=O)NCc2c(C)cc(C)[nH]c2=O)c1C)C1CCOCC1 (centres unmarked) [Example 62, N-((4,6-Dimethyl-2-oxo-1,2-dihydropyridin-3-yl)methyl)-5-(ethyl(tetrahydro-2H-pyran-4-yl)amino)-4-methyl-2-(1-(methylsulfonyl)pyrrolidin-3-yl)thiophene-3-carboxamide] | 6.30 |
| CCN(c1sc(C2CCN(S(C)(=O)=O)CC2)c(C(=O)NCc2c(C)cc(C)[nH]c2=O)c1C)C1CCOCC1 [Example 63, N-((4,6-Dimethyl-2-oxo-1,2-dihydropyridin-3-yl)methyl)-5-(ethyl(tetrahydro-2H-pyran-4-yl)amino)-4-methyl-2-(1-(methylsulfonyl)piperidin-4-yl)thiophene-3-carboxamide] | 6.30 |
| CCN(C)[C@H]1CC[C@H](N(CC)c2scc(C(=O)NCc3c(C)cc(C)[nH]c3=O)c2C)CC1 [Example 64, N-((4,6-dimethyl-2-oxo-1,2-dihydropyridin-3-yl)methyl)-5-(ethyl((trans)-4-(ethyl(methyl)amino)cyclohexyl)amino)-4-methylthiophene-3-carboxamide] | 7.80 |
| CCOC(=O)N(CC)c1scc(C(=O)NCc2c(C)cc(C)[nH]c2=O)c1C [Example 65, Ethyl (4-(((4,6-dimethyl-2-oxo-1,2-dihydropyridin-3-yl)methyl)carbamoyl)-3-methylthiophen-2-yl)(ethyl)carbamate] | 6.70 |
| CCN(c1scc(C(=O)NCc2c(C)cc(C)[nH]c2=O)c1C)C1CCN(C(C)C)CC1 [Example 66, N-((4,6-dimethyl-2-oxo-1,2-dihydropyridin-3-yl)methyl)-5-(ethyl(1-isopropylpiperidin-4-yl)amino)-4-methylthiophene-3-carboxamide] | 7.20 |
| CCN(c1scc(C(=O)NCc2c(C)cc(C)[nH]c2=O)c1C)C1CCNCC1F (centres unmarked) [Example 67, N-((4,6-dimethyl-2-oxo-1,2-dihydropyridin-3-yl)methyl)-5-(ethyl(3-fluoropiperidin-4-yl)amino)-4-methylthiophene-3-carboxamide] | 7.70 |
| Cc1cc(C)c(CNC(=O)c2csc(N3CCCC3C3CCNCC3)c2C)c(=O)[nH]1 (centres unmarked) [Example 68, N-((4,6-dimethyl-2-oxo-1,2-dihydropyridin-3-yl)methyl)-4-methyl-5-(2-(piperidin-4-yl)pyrrolidin-1-yl)thiophene-3-carboxamide hydrochloride] | 7.10 |
| Cc1cc(C)c(CNC(=O)c2csc(N3CCCCC3C3CCNCC3)c2C)c(=O)[nH]1 (centres unmarked) [Example 69, 5-([2,4′-Bipiperidin]-1-yl)-N-((4,6-dimethyl-2-oxo-1,2-dihydropyridin-3-yl)methyl)-4-methylthiophene-3-carboxamide hydrochloride] | 6.30 |
| Cc1cc(C)c(CNC(=O)c2csc(-c3cccc4c3CCNC4)c2C)c(=O)[nH]1 [Example 70, N-((4,6-Dimethyl-2-oxo-1,2-dihydropyridin-3-yl)methyl)-4-methyl-5-(1,2,3,4-tetrahydroisoquinolin-5-yl)thiophene-3-carboxamide hydrochloride] | 7.00 |
| C/C=C(/CCN1CCOCC1)c1scc(C(=O)NCc2c(C)cc(C)[nH]c2=O)c1C [Example 71, (Z)—N-((4,6-Dimethyl-2-oxo-1,2-dihydropyridin-3-yl)methyl)-4-methyl-5-(5-morpholinopent-2-en-3-yl)thiophene-3-carboxamide] | 6.00 |
| C/C=C(/CCCN1CCN(C)CC1)c1scc(C(=O)NCc2c(C)cc(C)[nH]c2=O)c1C [Example 72, (Z)—N-((4,6-Dimethyl-2-oxo-1,2-dihydropyridin-3-yl)methyl)-4-methyl-5-(6-(4-methylpiperazin-1-yl)hex-2-en-3-yl)thiophene-3-carboxamide] | 6.60 |
| CCC(CCCN1CCN(C)CC1)c1scc(C(=O)NCc2c(C)cc(C)[nH]c2=O)c1C (centres unmarked) [Example 73, N-((4,6-Dimethyl-2-oxo-1,2-dihydropyridin-3-yl)methyl)-4-methyl-5-(6-(4-methylpiperazin-1-yl)hexan-3-yl)thiophene-3-carboxamide] | 6.90 |

Reference: patent US9505745B2, “Enhancer of zeste homolog 2 inhibitors” (GlaxoSmithKline Intellectual Property (No.2) Limited, priority 2013, dated 2016)
